According to publication PMC7287080, “Distinct pre-initiation steps in human mitochondrial translation” (Nature Communications, 2020):

Molecular target: T1, mtIF2 (in mtPIC-2, mtSSU-mtIF2-mtIF3) (Homo sapiens, UniProt P46199)
T1 construct: mature mtIF2 residues 38-727, codon-optimized, pET-24b, E. coli Rosetta 2, Ni resin (His-tag implied) and gel filtration; with Translation initiation factor IF-3, mitochondrial
Assay: cryo-EM structure
Type: binding
Details: GTPase G-domain site, preactive state; mtIF2 (1 uM) preincubated with 2.5 mM GDPNP; mtSSU-mtIF3 bound; 25 mM HEPES-KOH pH 7.5, 5 mM Mg(OAc)2, 100 mM KCl; 3.1 A map

## Nc1nc2c(ncn2[C@@H]2O[C@H](COP(=O)(O)OP(=O)(O)NP(=O)(O)O)[C@@H](O)[C@H]2O)c(=O)[nH]1 [GDPNP]
  cryo-EM structure: The G-domain-bound GDPNP is found in close proximity to the mtIF2-domain III
